{"source": "patent US8716228B2", "about": "“GPR54 agonists or antagonists for treatment of diseases presenting behavioral abnormalities” (YEDA Research and Development Co. Ltd., priority 2009, dated 2014)", "key": {"SCID mice": {"test_system": "SCID mice", "assay": "Prepulse inhibition (PPI) in SCID mice", "format": "in vivo, mouse", "details": "adult (12 week old) SCID mice, i.p. 100 μl of 100 μM, 30 minutes prior to PPI testing, vs PBS", "description": "Prepulse Inhibition (PPI). PPI testing was performed within startle chambers purchased from Med Associates Inc (Med Associates, St. Albans, Vt., USA). PPI was analyzed as described previously (Kipnis et al., 2004). Briefly, during a period of acclimation, a 65-dB background noise was applied for 5-min, and continued throughout the test session. All sessions for testing of PPI consisted of startle trials (pulse alone, 40-ms, 120-dB), prepulse trials (prepulse 20-ms, 69, 73, 78, or 81 dB followed by a (100-ms delay) pulse), and no-stimulus trials. All sessions were presented in pseudo-random order. The average time between trials was 15 s (range 12-30 s). PPI was calculated as: % PPI=100−{[(startle response for prepulse+pulse)/(startle response for pulse-alone)]×100}. In all the experiments, there were no significant differences between groups in trials of startle reactivity to pulse alone, and in no-stimulation trials. […]\nTo confirm this possibility we examined whether injection of kisspeptin can restore the abnormal PPI in SCID mice to the normal level in wild-type mice. We analyzed the PPI in adult (12 week old) wild-type mice and, in SCID mice that were injected IP with 100 μl of 100 μM Kp-10 (SEQ ID NO:3), 30 minutes prior to PPI testing. […]"}, "[1]": {"test_system": "offspring of poly I:C treated dams", "assay": "PPI in offspring of poly I:C treated dams (mouse model for schizophrenia)", "format": "in vivo", "description": "Poly I:C administration. Rats or mice were bred, and the first day after copulation was defined as day 1 of pregnancy. On gestation day 15, pregnant animals were injected intravenously with 4.0 mg/kg poly I:C (Sigma-Aldrich, Israel) dissolved in saline, or an equivalent volume of saline as a control. Both rats and mice received the same protocol of poly I:C administration.\nPrepulse Inhibition (PPI). PPI testing was performed within startle chambers purchased from Med Associates Inc (Med Associates, St. Albans, Vt., USA). PPI was analyzed as described previously (Kipnis et al., 2004). Briefly, during a period of acclimation, a 65-dB background noise was applied for 5-min, and continued throughout the test session. All sessions for testing of PPI consisted of startle trials (pulse alone, 40-ms, 120-dB), prepulse trials (prepulse 20-ms, 69, 73, 78, or 81 dB followed by a (100-ms delay) pulse), and no-stimulus trials. All sessions were presented in pseudo-random order. The average time between trials was 15 s (range 12-30 s). PPI was calculated as: % PPI=100−{[(startle response for prepulse+pulse)/(startle response for pulse-alone)]×100}. In all the experiments, there were no significant differences between groups in trials of startle reactivity to pulse alone, and in no-stimulation trials. Data from no-stimulation trials are not included in the results because the values obtained were negligible relative to values from trials containing startle stimuli. Reduced PPI is associated with schizophrenia-related behavior. The same protocol was used in mice and rats (FIG. 1A).\nKisspeptin treatment. Mice were injected i.p with 100 μl of 1/10/100 μM Kp-10 peptide (SEQ ID NO:3) (synthesized at the Weizmann Institute of Science, or Sigma-Aldrich, Israel) dissolved in PBS, 30 minutes before the PPI analysis.\nThe ability of a normal lymphocyte population to reverse abnormal PPI behavior in immune deficient mice, encouraged us to test whether immune cells derived from the offspring of poly I:C treated dams would reverse the abnormal behavior of SCID mice in the PPI test. […]"}, "naive C57B1/6 mice": {"test_system": "naive C57B1/6 mice", "assay": "PPI in naive C57B1/6 mice", "format": "in vivo, mouse", "experimental": "Prepulse Inhibition (PPI). PPI testing was performed within startle chambers purchased from Med Associates Inc (Med Associates, St. Albans, Vt., USA). […] Briefly, during a period of acclimation, a 65-dB background noise was applied for 5-min, and continued throughout the test session. All sessions for testing of PPI consisted of startle trials (pulse alone, 40-ms, 120-dB), prepulse trials (prepulse 20-ms, 69, 73, 78, or 81 dB followed by a (100-ms delay) pulse), and no-stimulus trials. All sessions were presented in pseudo-random order. The average time between trials was 15 s (range 12-30 s). PPI was calculated as: % PPI=100−{[(startle response for prepulse+pulse)/(startle response for pulse-alone)]×100}. […] Data from no-stimulation trials are not included in the results because the values obtained were negligible relative to values from trials containing startle stimuli.\nNeurotensin receptor antagonist SR142948 (TOCRIS COOKSON LTD) was used at 100 μg/kg 60 min before the PPI analysis.\nGnRH receptor antagonist Cetrorelix Acetate (Cetrotide™, Anaspec Inc. Fremont, Calif.). Control mice were administered the same volume of PBS.\nTo examine whether Kp-10 can elevate PPI in naïve mice in a dose dependent manner, we analyzed PPI in C57B1/6 mice that were injected i.p with 100 μl of 1/10/100 μM Kp-10 (SEQ ID NO:3)."}, "BDNF": {"test_system": "BDNF", "assay": "qPCR of BDNF transcripts in hippocampus", "format": "in vivo, mouse", "details": "mRNA, offspring of poly I:C treated dams treated at 8 weeks with Kp-10 or PBS", "description": "RNA purification, cDNA synthesis, reverse transcription PCR, and real-time quantitative PCR analysis. For RNA expression analysis, cells from whole hippocampi were extracted with TRI Reagent (MRC, Cincinnati, Ohio), and total cellular RNA was purified from the lysates using the RNeasy kit (Qiagen, Hilden, Germany). RNA (1 μg) was converted to cDNA using SuperScript II (Promega, Madison, Wis.). The amplification cycle was 95° C. for 5 s, 60° C. for 20 s, and 72° C. for 15 s.\nThe following primers were used: […]\nTo understand what is the mechanism behind the prophylactic treatment of Kp-10 we examined the expression of total brain-derived neurotrophic factor (BDNF) and its exon transcripts 1-4 according to Zajac et al. (2010). […] Recently, association between a BDNF variant and childhood-onset mood disorder was established (Strauss et al., 2005). Therefore, we studied mRNA expression of a few BDNF transcripts in the hippocampus of offspring of PBS treated dams (n=5) compared to offspring of poly I:C treated dams, which were treated at 8 weeks with either Kp-10 (n=6) or PBS (n=6) (Table 3). […] Treatment with Kp-10 at 8 weeks of age induced an increase in the expression of BDNF1 transcript to the normal level (Table 3(ii)). […] In addition, no significant difference was found between the groups in the expression of BDNF transcripts 3 and 4 (Table 3(iv and v)). […] The involvement of BDNF in schizophrenia and its effect on PPI levels are still a debate. Our observations of changes in expression of selective forms of BDNF might explain this apparent dichotomy."}, "GPR54": {"molecular_target": "GPR54 (Mus musculus, UniProt Q91V45)", "sequence (Q91V45 whole entry)": "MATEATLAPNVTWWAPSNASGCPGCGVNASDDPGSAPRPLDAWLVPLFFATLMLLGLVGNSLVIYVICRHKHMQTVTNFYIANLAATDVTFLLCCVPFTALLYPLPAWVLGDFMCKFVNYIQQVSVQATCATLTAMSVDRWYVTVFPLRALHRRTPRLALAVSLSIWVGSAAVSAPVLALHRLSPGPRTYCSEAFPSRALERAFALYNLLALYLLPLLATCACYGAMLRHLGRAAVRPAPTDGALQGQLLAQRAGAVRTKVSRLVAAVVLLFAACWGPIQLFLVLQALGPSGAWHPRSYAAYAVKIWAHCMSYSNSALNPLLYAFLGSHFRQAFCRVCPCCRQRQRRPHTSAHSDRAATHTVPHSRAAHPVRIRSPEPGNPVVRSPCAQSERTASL", "details": "in vivo; cited from earlier work"}}}
{"substance": "YNWNSFGLRF—NH2 [Kp-10]", "values": [{"measurement": "PPI", "setting": "SCID mice", "result": "restored the PPI of SCID mice back to the normal level"}, {"measurement": "PPI at adulthood (12 weeks)", "setting": "[1]; single i.p. injection at adolescence (8 weeks), 100 μl containing 100 μM, vs PBS", "result": "did not exhibit abnormal PPI"}, {"measurement": "PPI", "setting": "[1]; treatment at adulthood (12 weeks) after onset, 100 μl of 100 μM, 30 min before PPI", "result": "improved the abnormal PPI"}, {"measurement": "PPI", "setting": "naive C57B1/6 mice; 100 μl of 1000 μM, small group, data not shown, vs PBS", "result": "no improvement was detected"}, {"measurement": "PPI", "setting": "naive C57B1/6 mice; female C57B1/6 mice, single dose 100 μl of 100 μM", "result": "significantly increased the PPI"}, {"measurement": "PPI 24 hours after administration (ANOVA of percent PPI)", "setting": "naive C57B1/6 mice; male mice, 100 μl of 100 μM", "result": "no significant main effect of the treatment"}, {"measurement": "duration of the effect on PPI", "setting": "naive C57B1/6 mice; male mice, 100 μl of 100 μM", "result": "less than 24 hours"}, {"measurement": "PPI after repeated injection", "setting": "naive C57B1/6 mice; male mice, repeated injection 24 hours after the first", "result": "induced the elevation of the PPI again"}, {"measurement": "PPI after repeated injection", "setting": "naive C57B1/6 mice; male mice, repeated injection 7 days after the first", "result": "induced the elevation of the PPI again"}, {"measurement": "PPI at adulthood", "setting": "naive C57B1/6 mice; naive animals, single injection at adolescence, vs PBS", "result": "no differences between the Kp-10 and the PBS treated mice"}, {"measurement": "PPI", "setting": "naive C57B1/6 mice; naive male mice, i.p. 100 μl of 1 μM, vs PBS", "result": "improved PPI but the improvement was not statistically significant"}, {"measurement": "PPI", "setting": "naive C57B1/6 mice; naive male mice, i.p. 100 μl of 10 μM, vs PBS", "result": "significantly increased PPI"}, {"measurement": "PPI", "setting": "naive C57B1/6 mice; naive male mice, i.p. 100 μl of 100 μM, vs PBS", "result": "significantly increased PPI"}, {"measurement": "Expression of BDNF1 transcript", "setting": "BDNF", "result": "*2.2 ± 0.5"}, {"measurement": "Expression of BDNF2 transcript", "setting": "BDNF", "result": "^#6.7 ± 1 ^"}, {"measurement": "Expression of BDNF3 transcript", "setting": "BDNF", "result": "8 ± 3"}, {"measurement": "Expression of BDNF4 transcript", "setting": "BDNF", "result": "9 ± 2"}, {"measurement": "Expression of BDNF transcript (total BDNF)", "setting": "BDNF", "result": "2.4 ± 0.5"}, {"measurement": "GPR54 activation", "setting": "GPR54", "result": "activate GPR54 in vivo"}]}
